Legend:
Huh7 = assay: CCK-8 cell viability assay; assay type: cell-based; details: Homo sapiens, Huh-7, Huh7, 40 μM, 48 h, read-out: Cell viability (100%), 40 μM, 48 h, Huh7
[1] = CCK-8 cell viability assay, normal cell line; assay type: cell-based; details: human, BEAS-2B cells (normal cell line), BEAS-2B normal cell line, read-out: Cell viability (100%), 40 μM, 48 h, BEAS-2B
Procedure: In order to investigate the anticancer activity of new synthetic 1,4-benzoxazinone-linked 1,2,3-triazole compounds, we chose several cancer cell lines, including A549 (lung), Huh7 (liver), MCF-7 (breast), HCT-116 (colon), and SKOV3 (ovary), and measured cell viability using the CCK-8 assay. Cells were exposed to 40 μM of the compounds for 48 h, and then cell viability was determined. […] In addition, we used the reference drug gefitinib as a positive control and measured its cell viability on different cell lines. […] We used BEAS-2B cells as a normal cell line to determine the toxic effects of these compounds on normal cells. […] Furthermore, we evaluated the IC50 of these compounds in A549.
Cells were cultured in DMEM or RPMI 1640 medium containing 10% FBS and 1% penicillin/streptomycin at 37°C and 5% CO2. The CCK-8 assay was performed on several human cancer cell lines, including A549, Huh7, MCF-7, HCT-116, and SKOV3, according to the manufacturer’s instructions. Cells were plated at a density of 5 × 10^3 cells per well in a 96-well plate. After 24 h of incubation, cells were treated with 40 μM compounds for 48 h. Cell viability was assessed by adding 10 μL of CCK-8 reagent, dissolved in the cell culture medium, and incubating for 1 h. Absorbance was measured at 450 nm using a microplate reader. IC50 values were determined using a dose-response curve with six concentrations (0, 10, 20, 40, 80, and 160 μM), and IC50 values were calculated using GraphPad Prism software.

BEAS-2B cells = assay: Calcein AM/PI live/dead viability assay, normal lung cells; assay type: cell-based; details: BEAS-2B, 5, 10, 20 μM, 24 h
Procedure: To investigate the role of 14b and 14c in regulating cell proliferation and death, A549 cells were treated with different concentrations of compounds for 24 h, and the live/dead cell numbers were then observed by staining with calcein AM and propidium iodide.
FIGURE 4 Compound 14b and 14c increased dead cells and decreased live cells. (A–B) A549 cells were treated with different concentrations of 14b and 14c (5 μM, 10 μM, and 20 μM) for 24 h (C–D) BEAS-2B cells were treated with different concentrations of 14b and 14c (5 μM, 10 μM, and 20 μM) for 24 h. Live and dead cell numbers were stained with calcein in AM and PI, respectively, and cells were observed by confocal microscopy. Data are presented as mean ± SEM, *P < 0.05.
The live/dead viability assay was performed using the Calcein/PI Live/Dead Viability Assay Kit. A549 cells were plated at a density of 5 × 10^3 cells per well in a 96-well plate and allowed to adhere overnight. Compounds were then added at concentrations of 0, 5, 10, or 20 μM for 24 h. After replacing the medium with fresh culture medium containing Calcein AM and propidium iodide, the cells were incubated for 30 min at 37°C in the dark. Live and dead cells were observed and photographed using a confocal microscope.

A549 cells [2] = assay: RT-PCR gene expression; assay type: cell-based, human; details: A549, 10 μM, 48 h
Procedure: To investigate the molecular mechanisms underlying the anti-tumor activity of 2H-1,4-benzoxazin-3(4H)-one-linked 1,2,3-triazole derivatives, we examined the expression of key genes involved in cell growth and death, including those related to DNA damage, oxidative stress, apoptosis, and autophagy (Figure 5). Gene expression was assessed in A549 cells treated with 14b or 14c (10 μM) for 48 h. […] The regulation of gene expression is a complex process regulated by many signaling pathways, and these signaling pathways interact with each other, all of which lead to a change in gene expression, not all in the same direction. Although the DNA damage gene p21 was decreased, another key gene, H2AX, was increased, which may stimulate DNA damage. These findings in A549 cells align with the results observed following 14b and 14c treatments.
FIGURE 5 Compounds 14b and 14c increased the gene expression. A549 cells were treated with 14b (A) and 14c (B) (10 μM) for 48 h. Gene expressions were detected by RT-PCR. Data are presented as mean ± SEM, *P < 0.05.
A549 cells were seeded in 12-well plates and treated with compounds for 48 h. Total RNA was extracted using TRIzol reagent, and RT-PCR was performed using PowerUp™ SYBR™ Green Master Mix. Gene expression was normalized to GAPDH. The results are expressed as mean ± SEM, and statistical significance was assessed using a two-tailed Student’s t-test (P < 0.05).

A549 cells [3] = assay: Western blot analysis of autophagy, DNA damage and cell cycle proteins; assay type: cell-based, human; details: A549, 5, 10, 20 μM, 48 h
Procedure: Next, we measured the expression of key proteins involved in autophagy, DNA damage, and cell cycle progression in 14b and 14c compound-exposed cells. After treatment for 48 h, cell proteins were collected and measured by Western blot. […] Proteins in cell cycle progression, including cyclin D, cyclin E, and β-catenin, however, were not affected in the 14 b compound exposure group compared with the control group. […] However, the key regulators involved in autophagy and cell cycle progression, such as LC3, cyclin D, cyclin E, and β-catenin, were not changed.
FIGURE 7 Compounds 14b and 14c affected DNA damage and autophagy. A549 cells were treated with different concentrations of 14b (A) and 14c (B) (5 μM, 10 μM, and 20 μM) for 48 h. Protein expressions were analyzed by Western blot. Top: Western blot of LC3, γ-H2AX, PARP, cyclin D, cyclin E, and β-catenin. Bottom: quantitative measurements relative to ACTIN. Data are presented as mean ± SEM, *P < 0.05.
The following antibodies were used for Western blot analysis: LC3, γ-H2AX, PARP, cyclin D, cyclin E, β-Catenin, and β-actin. Cells were treated with compounds (0, 5, 10, and 20 μM) for 48 h, and total cell proteins were extracted using RIPA buffer containing a protease/phosphatase inhibitor cocktail. Protein expression levels were measured and analyzed by Western blotting.

Row | Compound | viability at 40 µM (Huh7) [%] | viability at 48 h, 40 µM [1] [%] | cytotoxicity in normal lung cells (BEAS-2B cells) | ATG7 gene expression (A549 cells [2]) | Gpx4 gene expression (A549 cells [2]) | H2AX gene expression (A549 cells [2]) | apoptosis-related genes expression (A549 cells [2]) | cell cycle progression proteins cyclin D, cyclin E, and β-catenin (A549 cells [3]) | ratio of LC3II to LC3I / LC3 (autophagy) (A549 cells [3]) | γ-H2AX protein expression (A549 cells [3]) | Nrf2 gene expression (A549 cells [2]) | p53 gene expression (A549 cells [2]) | PARP expression (A549 cells [3])
1 | O=C1COc2ccc(NC(=O)c3cccc(-c4cn(-c5ccccc5F)nn4)c3)cc2N1 [Compound 14c] | 125 ± 1.53 | 105 ± 2.38 | minimal cytotoxicity | upregulated | upregulated | upregulated | either downregulated or unchanged | not changed | not changed | increased expression | – | – | –
2 | O=C1COc2ccc(NC(=O)c3cccc(-c4cn(-c5cccc(Br)c5)nn4)c3)cc2N1 [Compound 14b] | 123 ± 2.08 | 93.2 ± 0.61 | minimal cytotoxicity | increased expression | – | – | – | not affected | increased | induced | increased expression | increased expression | not changed

From article PMC12202533, “Mechanistic Insights and Anti-cancer Activity of 2H-benzo[b][1,4]oxazin-3(4H)-one Linked 1,2,3-Triazoles in Human Cancer Cells” (Frontiers in Pharmacology, 2025)
